The source of these data is patent publication US8835644B2, “Broad spectrum benzothiophene-nitrothiazolide and other antimicrobials” (University of Virginia Patent Foundation, priority 2009, dated 2014).

In brackets after ≈: the same amount, converted by molar mass. Where two headings read alike, the source gives them in different places.

For assay [1], the system named is C. difficile. Put plainly: MIC by agar dilution, C. difficile. It is filed as cell-based, Clostridium difficile. Here is the method:
A standard broth dilution protocol was used in 96 well microplates containing a standard dilution of the microorganism to be tested in 100 microliters of the appropriate medium. Appropriate medium: E. coli, LB medium; Staphylococcus strains, Trypticase Soy; and for H. pylori and C. jejuni, Brain Heart Infusion. The compounds to be tested were set at 32 μg/ml in 200 microliters in well one and then serially diluted to provide a range from 32 to 0.06. The wells were scored visually at 24 h. The well where there was no growth was recorded as the MIC. […]
(§1) Representative compounds of the invention were tested in a series of assays against a series of organisms as described above. […] The organisms tested include, C. difficile, H. pylori, C. jejuni, MRSA, S. epidermidis, and E. coli. S. epidermidis and E. coli were tested in the plank and biofilm assay. A disk diffusion assay was also used for C. difficile. Direct PFOR enzyme assays were also performed. All analogues and derivatives were not tested on every organism in every type of assay (the “-” in each table means that it was not tested).

In assay [2] the test system is C. difficile. Put plainly: Disk diffusion (Kirby Bower), C. difficile. The assay is classed as cell-based, Clostridium difficile. The settings on record: for Disk Diff (%) C. difficile: Nitazoxanide = 100; for Disk Diffusion (%) C. difficile: zone of inhibited growth as relative ratio to the zone for NTZ. An outline of the steps:
(§2)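 Twofold broth microdilution from 32 μg/ml down to 0.06, in LB for E. coli, Trypticase Soy for S. epidermidis (planktonic) and Brain Heart Infusion for C. jejuni. C. difficile: anaerobic disk diffusion on Wilkins Chalgrin agar, inhibition zone expressed as a ratio to the NTZ zone.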

Assay [3] concerns H. pylori. The experiment in a line: MIC testing by broth dilution, H. pylori. It is filed as cell-based, Helicobacter pylori. The method, boiled down: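 Broth dilution MIC determination against H. pylori: a standard inoculum in 100 microliters of Brain Heart Infusion medium was placed in 96 well microplates. Test compounds began at 32 μg/ml in 200 microliters in well one and were serially diluted over a 32 to 0.06 range. After 24 h, plates were scored by eye and the first well without growth was recorded as the MIC.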

The subject of assay [4] is C. jejuni. Put plainly: MIC testing by broth dilution, C. jejuni. It is filed as cell-based, Campylobacter jejuni. An outline of the steps: as §2
The subject of assay [5] is MRSA. Put plainly: MIC testing by broth dilution, MRSA. It is filed as cell-based, Staphylococcus aureus. The method, boiled down:
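Values are broth-dilution MICs, defined as the well showing no growth on visual reading after 24 h; the tested range was 32 to 0.06 μg/ml, in organism-specific media (LB, Trypticase Soy, Brain Heart Infusion). The C. difficile entries come instead from anaerobic Kirby-Bauer disk zones, normalised to NTZ.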

The subject of assay [6] is E. coli biofilm. Put plainly: E. coli biofilm assay (activity tables). The assay is classed as cell-based, Escherichia coli. The method, boiled down:
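After 24 h static culture at 37 °C in wells containing NTZ, strain 042 (1:100 inoculum) biofilm was quantified by 0.5% crystal violet absorbance at 570 nm. Planktonic growth was taken from turbidity or LB plate counts as cfu/ml; all runs triplicate, reported as mean and SD.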

Assay [7] has as its system PFOR (pyruvate ferredoxin oxidoreductase). The experiment in a line: Direct PFOR enzyme assay. It is filed as biochemical. On the procedure:
as §1

Assay [8] relates to E. coli. Put plainly: MIC testing by broth dilution, E. coli plank. The assay is classed as cell-based, Escherichia coli. The method, boiled down:
as §2

Assay [9] has as its system S. epidermidis. Put plainly: MIC testing by broth dilution, S. epidermidis plank. It is filed as cell-based, Staphylococcus epidermidis. An outline of the steps:
as §2

The subject of assay [10] is S. epidermidis biofilm. The experiment in a line: S. epidermidis biofilm assay (activity tables). The assay is classed as cell-based, Staphylococcus epidermidis. The method, boiled down:
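Overnight TSB cultures diluted to OD600 0.01 and grown static with compound (triplicate) at 37° C for 16 h; turbidity recorded for growth. Biofilm: washed wells ethanol-fixed, stained with 0.5% crystal violet, A570 read before and after 95% ethanol extraction; mean ± SD.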

[11] abbreviates: agar dilution, anaerobic, Wilkins Chalgrin agar, read-out: MIC (μM) C. difficile.
Setting [12] is: broth dilution, Brain Heart Infusion, 24 h, read-out: MIC (μM) H. pylori.
[13] abbreviates: broth dilution, Brain Heart Infusion, 24 h, read-out: MIC (μM) C. jejuni.
[14] abbreviates: broth dilution, Trypticase Soy, 24 h, read-out: MIC (μM) MRSA.
Setting [15] is: biofilm, read-out: MIC (μM) E. coli Biofilm.
Where [16] appears, read: broth dilution, LB medium, 24 h, read-out: MIC (μM) E. coli Plank.
Setting [17] is: broth dilution, Trypticase Soy, 24 h, read-out: MIC (μM) S. epidermidis Plank.

Take `O=C(Nc1ncc([N+](=O)[O-])s1)c1ccoc1` [VPC16a1006, N-(5-Nitrothiazol-2-yl)furan-3-carboxamide]: the MIC in [1] (Clostridioides difficile, Furan analogues table, read-out: MIC C. difficile) came out at 33.4 µM (≈ 7.99 µg/mL); in [3] (Helicobacter pylori, Furan analogues table, read-out: MIC H. pylori) it was 0.8 µM (≈ 0.191 µg/mL); in [4] (Campylobacter jejuni, Furan analogues table, read-out: MIC C. jejuni) it was 12.5 µM (≈ 2.99 µg/mL); in assay [5] (Staphylococcus aureus, MRSA, Furan analogues table, read-out: MIC MRSA), 50.2 µM (≈ 12 µg/mL); in assay [6] (Escherichia coli, biofilm, Furan analogues table, read-out: MIC E. coli Biofilm) it was 134 µM (≈ 32 µg/mL); in assay [8] (Escherichia coli, planktonic, Furan analogues table, read-out: MIC E. coli Plank) it was 134 µM (≈ 32 µg/mL). Besides, the “Disk Diff (%) C. difficile” value in assay [2] (Furan analogues table) was found to be 97 ± 3%. Besides, the “PFOR inhibition relative to nitazoxanide (=100)” value in assay [7] (Furan analogues table) was found to be 98%.

`CCCCCC(=O)Nc1ncc([N+](=O)[O-])s1` [VPC16a1007, N-(5-Nitrothiazol-2-yl)hexanamide]: the MIC in assay [1] (Clostridioides difficile, agar dilution, anaerobic, Wilkins Chalgrin agar, read-out: MIC (μM) C. difficile) is 65.8 µM (≈ 16 µg/mL); in [3] (Helicobacter pylori, broth dilution, Brain Heart Infusion, 24 h, read-out: MIC (μM) H. pylori) it was 1.4 µM (≈ 0.341 µg/mL); in [4] (Campylobacter jejuni, broth dilution, Brain Heart Infusion, 24 h, read-out: MIC (μM) C. jejuni), 5.5 µM (≈ 1.34 µg/mL); in [6] (Escherichia coli, read-out: MIC (μM) E. coli Biofilm), 132 µM (≈ 32 µg/mL); in assay [8] (Escherichia coli, broth dilution, LB medium, 24 h, read-out: MIC (μM) E. coli Plank) it was 132 µM (≈ 32 µg/mL); in assay [9] (Staphylococcus epidermidis, broth dilution, Trypticase Soy, 24 h, read-out: MIC (μM) S. epidermidis Plank), 32.9 µM (≈ 8 µg/mL). Further, the “Disk Diffusion (%) C. difficile” value in assay [2] stood at 56.5 ± 0.5%. In addition, the “PFOR inhibition relative to nitazoxanide (=100)” value in assay [7] was 123%.

Turning to `O=C(Nc1ncc([N+](=O)[O-])s1)C1CCCCC1` [VPC16a1010], the MIC was 62.6 µM (≈ 16 µg/mL) in [1] (setting [11]); 0.7 µM (≈ 0.179 µg/mL) in [3] (setting [12]); 11.4 µM (≈ 2.91 µg/mL) in [4] (setting [13]); 125.2 µM (≈ 32 µg/mL) in [5] (setting [14]); 31.3 µM (≈ 7.99 µg/mL) in assay [6] (setting [15]); 125.2 µM (≈ 32 µg/mL) in [8] (setting [16]). Further, the MIC in assay [9] (setting [17]) was 31.3 µM (≈ 7.99 µg/mL). Further, in assay [2], the “Disk Diffusion (%) C. difficile” value came to 53 ± 3%. The “PFOR inhibition relative to nitazoxanide (=100)” value in assay [7] amounted to 93%.

As to `COc1cc([N+](=O)[O-])ccc1C(=O)Nc1ncc([N+](=O)[O-])s1` [VPC161093], the MIC in [1] (setting [11]) is 98.7 µM (≈ 32 µg/mL); in [3] (setting [12]) it was 0.6 µM (≈ 0.195 µg/mL); in assay [4] (setting [13]), 9.3 µM (≈ 3.02 µg/mL); in assay [5] (setting [14]) it was 98.7 µM (≈ 32 µg/mL); in assay [6] (setting [15]), 98.7 µM (≈ 32 µg/mL); in assay [8] (setting [16]), 98.7 µM (≈ 32 µg/mL). Moreover, the MIC in assay [9] (setting [17]) was found to be 12.3 µM (≈ 3.99 µg/mL). In addition, in [7], the “PFOR inhibition relative to nitazoxanide (=100)” value is 115%. The “MIC (μM) S. epidermidis Biofilm” value in assay [10] is 12.3 µM (≈ 3.99 µg/mL).

Consider `O=C(Nc1ncc([N+](=O)[O-])s1)c1sc2cc(F)ccc2c1Cl` [VPC161115], for which the MIC in assay [1] (Thiophene analogues table, read-out: MIC C. difficile) came out at 11.2 µM (≈ 4.01 µg/mL); in [3] (Thiophene analogues table, read-out: MIC H. pylori), 1.0 µM (≈ 0.358 µg/mL); in [4] (Thiophene analogues table, read-out: MIC C. jejuni), 5.6 µM (≈ 2 µg/mL); in assay [5] (Thiophene analogues table, read-out: MIC MRSA) it was 2.1 µM (≈ 0.751 µg/mL); in assay [6] (biofilm, Thiophene analogues table, read-out: MIC E. coli Biofilm), 5.6 µM (≈ 2 µg/mL); in assay [8] (planktonic, Thiophene analogues table, read-out: MIC E. coli Plank) it was 89.4 µM (≈ 32 µg/mL). For the same compound, the MIC in assay [9] (planktonic, Thiophene analogues table, read-out: MIC S. epidermidis Plank) is 5.6 µM (≈ 2 µg/mL). The “Disk Diff (%) C. difficile” value in assay [2] (Thiophene analogues table) amounted to 44%. For the same compound, the “PFOR inhibition relative to nitazoxanide (=100)” value in assay [7] (Thiophene analogues table) was found to be 96%. In [10] (Thiophene analogues table), the “MIC S. epidermidis Biofilm” value was 0.1 µM (≈ 0.0358 µg/mL).
